Measurements as given in patent publication US11712443B2, “17α-monoesters and 17α,21-diesters of cortexolone for use in the treatment of tumors” (COSMO TECHNOLOGIES LTD., priority 2014, dated 2023).
pIC50: −log10 of the molar value.

What was measured:
BxPC3 = conditions: human, 3 days
stimulated PBMC = experiment: IC50 on stimulated PBMC (actively dividing cells)
Protocol: The IC^50 in PBMC were tested in 2 different activation status:
stimulated—actively dividing cells
IC50 of the compounds was determined on fresh cells isolated from human blood (PBMC). The compounds toxicity was determined as follow: Therapeutic Index=Safety/Potency=IC50 stimulated PBMC_/IC50 cancer cell

[1] = In vitro metabolism in human plasma; assay type: in vitro ADME; conditions: 37 C; liquid chromatography; FIG. 13
Protocol: To obtain some insights on the metabolism of CB-03-10 in human and rat plasma, a specific assay was designed. Briefly the compound was incubated at different time in human and rat plasma at 37 C. After incubation the samples were tested for presence of the intact compound by liquid chromatography.

Caspase 8 and Caspase 9 = experiment: Caspase activity assay in MiaPaca2 cells; assay type: cell-based; conditions: 20 or 50 μM, evident after 8 hours, corrected for viable cells
Protocol: To better analyze the phenomenon the enzymatic activity of Caspase 8 (initiator caspase for Extrinsic Pathway) and Caspase 9 (initiator caspase for Intrinsic Pathway) and of Caspases 3 and 7 (effector caspases) were measured.

[2] = In vivo pharmacokinetic in mouse plasma; conditions: mice; iv 20 mg/kg, SC 40 mg/kg, PO 40 mg/kg; after 1 hour
Protocol: The pharmacokinetic of CB-03-10 was evaluated in plasma of mice after intravenous (IV), subcutaneous (SC) and oral administration (PO).
Mice (3 per group) were administered with the following doses, blood was collected at the indicated times. Plasma samples were analyzed by HPLC-MS/MS.

LNCaP = experiment: ATP-dependent proliferation/viability assay (Cell Titer Glo), 3 days; conditions: 3 days
Protocol: (§1) The experiment was performed to test and to define the antitumor activity in vitro of cortexolone 17α-benzoate on LNCaP (AR+) and PC3 (AR^−), representative of Prostatic cancer cell lines with Androgen Receptor (AR) positive or negative expression, respectively. The experimental method consisted of: • 1. […] After 24 hours, 10 nM DHT (dihydrotestosterone) with or without anti-androgen compounds, or DMSO vehicle (negative control) was added to the cultures. • 3.
as §1, with “define” for “define the”, “17α-valerate-21-propionate (CB-03-10)” for “17α-benzoate”, “AR” for “Androgen Receptor (AR)”

PC3 = experiment: as above; conditions: 3 days
Protocol: as §1
as §1, with “define” for “define the”, “17α-valerate-21-propionate (CB-03-10)” for “17α-benzoate”, “AR” for “Androgen Receptor (AR)”

HT29 = experiment: MTT colorimetric assay, 72 h; assay type: cell-based; conditions: human, 72 h
Protocol: The experiment was performed to test and define anticancer activity in vitro of Cortexolone 17α-benzoate and cortexolone 17α-valerate-21-propionate on cell lines representatives of epithelial intestinal tumors, namely HT29. The experiment method consisted in: • 1. Monolayer HT-29 cells were plated in: 96-wells plates at the density of 2×10^4 cells/mL. The cells plated were kept at 37° C. in 5% CO2 and left to attach for 24 h. • 2. […] After 72 h of treatment, the MTT colorimetric assay was performed.

Caspases 8, 9 and 3/7 = experiment: Caspase activity assay in LNCaP prostate cancer cells; assay type: cell-based; conditions: 24 hours, FIG. 12
Protocol: After 24 hours test compounds were added to cells, Gemcitabine (a known pancreatic cancer chemotherapeutic agent) and DMSO were used as positive and negative control, respectively. After 8, 24, & 48 hours incubation with test compounds, cells were lysed in buffer containing the caspase 3/7 or 8 or 9 substrate and a stable luciferase in proprietary buffers. The lysates were transferred to white opaque plates before measuring luminescence in a Tecan S afire instrument. Parallel plates treated identically, were used to determine viable cells. All caspase activities were corrected for the number of viable cells.
Same assay was repeated using LNCaP prostate cancer cell lines (FIG. 12). […] The results are shown in FIG. 12 at 24 hours incubation when the caspase activities peaked.

With `CCCCC(=O)O[C@]1(C(=O)COC(=O)CC)CC[C@H]2[C@@H]3CCC4=CC(=O)CC[C@]4(C)[C@H]3CC[C@@]21C` [CB-03-10, cortexolone 17α-valerate-21-propionate] the “Therapeutic Index = IC50 resting PBMC/IC50 cancer cell” value (BxPC3) was 3, the “Therapeutic Index = IC50 stimulated PBMC/IC50 cancer cell” value (BxPC3) was 3 and the “Therapeutic Index = IC50 resting PBMC/IC50 cancer cell” value (stimulated PBMC; PBMC Stim, healthy lymphocyte, Table IV) was 1. The “Therapeutic Index = IC50 stimulated PBMC/IC50 cancer cell, AVERAGE” value (stimulated PBMC; average across the 7 cancer cell lines, Table VII) was 4, the “degradation in human plasma” value [1] was “rapidly degraded to CB-03-05 in human plasma” and the “caspase 8 and 9 activity, increase compared to control” value (Caspase 8 and Caspase 9) was no more than 7 fold. For the same compound, the “plasma level of intact compound” value [2] was “undetectable”, the pIC50 (LNCaP; Homo sapiens, LNCaP, 72 h, LNCaP (AR+), 10 nM DHT, Examples 1-2 Experiment 1, sigmoidal dose response fit) was 4.89 and the “Therapeutic Index = IC50 resting PBMC/IC50 cancer cell” value (LNCaP; human) was 9. The “Therapeutic Index = IC50 stimulated PBMC/IC50 cancer cell” value (LNCaP; human) was 9, the pIC50 (PC3; Homo sapiens, 72 h, PC3 (AR-), 10 nM DHT, Examples 1-2 Experiment 2, nonlinear regression least squares fit, additional experiments) was 4.30 and the “Therapeutic Index = IC50 resting PBMC/IC50 cancer cell” value (PC3; human) was 2. The “Therapeutic Index = IC50 stimulated PBMC/IC50 cancer cell” value (PC3; human) was 2, the “Therapeutic Index (TI), Stimulated PBMC” value (HT29) was 3 and the “Initiator (8 and 9) and Effector (3/7) caspase activities” value (Caspases 8, 9 and 3/7) was “induced Initiator (8 and 9) and Effector (3/7) caspase activities better than Enzalutamide”.
